Where two headings read alike, the source gives them in different places.
Legend:
KRAS-WT = KRAS-WT (Homo sapiens, UniProt P01116); experiment: SOS-catalyzed nucleotide exchange assay (Procedure A, TR-FRET), KRAS-WT; type: biochemical
Outline: (§1)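 TR-FRET readout (520/495 nm) of SOS-driven exchange of Bodipy-GDP for unlabeled GTP (3 mM) on biotinylated, Tb-streptavidin-bound RAS, after 60 min compound preincubation at room temperature. Exchange times and RAS/SOS levels: 60 min for WT (1/40 nM), G12C triple mutant (3/40 nM), NRAS (1.25/40 nM); 90 min for G12V (1.25/160 nM). Four-parameter logistic fits on normalized effect.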

[1] = biological target: KRAS-G12C (C51S/C80L/C118S) (Homo sapiens, UniProt P01116, C118S/C51S/C80L/G12C); experiment: SOS-catalyzed nucleotide exchange assay (Procedure A, TR-FRET), KRAS-G12C; type: biochemical
KRAS-G12C (C51S/C80L/C118S), sequence (P01116 with tags, fused parts or gaps isoform P01116-2 G12C/C51S/C80L/C118S): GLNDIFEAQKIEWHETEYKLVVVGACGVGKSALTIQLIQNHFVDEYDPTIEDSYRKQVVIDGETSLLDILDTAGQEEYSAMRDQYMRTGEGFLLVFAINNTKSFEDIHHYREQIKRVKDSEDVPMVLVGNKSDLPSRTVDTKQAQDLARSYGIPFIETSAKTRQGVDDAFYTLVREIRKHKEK
Text: (§2) Procedure for SOS-Catalyzed Nucleotide Exchange Assay for KRAS-WT, G12C/D/V, G13D, HRAS, and NRAS (Procedure A)
(§3) Recombinant KRAS-G12C protein used in this assay has an additional triple mutation (C51S/C80L/C118S). Whereas KRAS-WT, G12D/V, G13D, HRAS and NRAS are in context of their WT protein sequence background. Specifically, the SOS-catalyzed nucleotide exchange assay utilizes a preformed TR-FRET complex containing a specific biotinylated RAS protein (KRAS-WT, G12C/V/D, G13D, HRAS, NRAS; described above) with Bodipy-GDP, and Terbium-streptavidin. Compounds are preincubated with this complex for 60 minutes. Subsequently, recombinant human SOS protein and unlabeled GTP are added to initiate the exchange reaction. Small molecule inhibitors stabilize the Bodipy-GDP complex whereas the untreated protein rapidly exchanges Bodipy-GDP for unlabeled GTP resulting in reduced TR-FRET signal.
(§4) To assemble the preformed TR-FRET complexes, each biotinylated RAS protein is diluted to 2 μM in an EDTA Buffer (20 mM HEPES pH 7.5, 50 mM sodium chloride, 10 mM EDTA, and 0.01% Tween) and incubated at room temperature for one hour. This mixture is then further diluted to 90 nM in an Assay Buffer (20 mM HEPES pH 7.5, 150 mM sodium chloride, 10 mM magnesium chloride, and 0.005% Tween) containing 15 nM of Terbium-Streptavidin (Invitrogen, catalog #PV3577) and 900 nM of Bodipy-GDP (Invitrogen, catalog #G22360) and incubated at room temperature for six hours. It should be noted that this preformed TR-FRET complex for each of the RAS protein were made ahead of time, aliquoted and stored at −80° C. until the day of the experiment.
(§5) Each test compound (10 mM stock in DMSO) is diluted in DMSO to make a final-10-point, 3-fold dilution and is acoustically dispensed into a 384-well assay plate (Corning, catalog #3820) using an Echo 550 (Labcyte). Each well of the assay plate receives 3 μL of a specific 3×RAS preformed TR-FRET complex and 3 μL of Assay Buffer and is incubated at room temperature for 60 minutes (preincubation time). Each well then receives 3 μL of 3×recombinant human SOS protein and GTP (Sigma, G8877) in Assay Buffer and is incubated at room temperature for 30 minutes (G13D), 60 minutes (KRAS WT/G12C/D, H/NRAS) or 90 minutes for G12V. The final reaction in each well of 9 μL consists of 3 mM GTP, specific Ras and SOS proteins in the following concentrations: KRAS-G12C/SOS=3 nM/40 nM, KRAS-WT and G12D/SOS=1 nM/40 nM, KRAS-G12V/SOS=1.25 nM/160 nM. KRAS-G13D/SOS=1.25 nM/0 nM, HRAS and NRAS=1.25 nM/40 nM.
(§6) The time-resolved fluorescence resonance energy transfer (TR-FRET) signal is measured on an Envision (PerkinElmer) plate reader: Excitation filter=340 nm; emission 1=495 nm; emission2=520 nm; dichroic mirror=D400/D505; delay time=[…]. The signal of each well is determined as the ratio of the emission at 520 nm to that at 495 nm. Percent effect of each well is determined after normalization to control wells containing DMSO (no effect) or a saturating concentration of inhibitor (max effect). The apparent effect as a function of compound concentration is fit to a four-parameter logistic equation.

KRAS-G12D = KRAS-G12D (Homo sapiens, UniProt P01116, G12D); experiment: SOS-catalyzed nucleotide exchange assay (Procedure A, TR-FRET), KRAS-G12D; type: biochemical
KRAS-G12D, sequence (P01116 with tags, fused parts or gaps isoform P01116-2 G12D): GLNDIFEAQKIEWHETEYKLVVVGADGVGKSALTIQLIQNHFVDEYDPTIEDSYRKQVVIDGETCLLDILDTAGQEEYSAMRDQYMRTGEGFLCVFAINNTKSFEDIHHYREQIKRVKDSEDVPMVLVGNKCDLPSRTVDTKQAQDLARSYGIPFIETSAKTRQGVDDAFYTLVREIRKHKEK
Outline: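 Signal ratio (520/495 nm, excitation 340 nm) reports Bodipy-GDP retention on biotinylated RAS after SOS-catalyzed exchange with 3 mM GTP. SOS was 40 nM, except 160 nM for G12V. Room-temperature exchange lasted 60 min (90 min for G12V), following a 60 min compound preincubation.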

KRAS-G12V = KRAS-G12V (Homo sapiens, UniProt P01116, G12V); experiment: SOS-catalyzed nucleotide exchange assay (Procedure A, TR-FRET), KRAS-G12V; type: biochemical
KRAS-G12V, sequence (P01116 with tags, fused parts or gaps isoform P01116-2 G12V): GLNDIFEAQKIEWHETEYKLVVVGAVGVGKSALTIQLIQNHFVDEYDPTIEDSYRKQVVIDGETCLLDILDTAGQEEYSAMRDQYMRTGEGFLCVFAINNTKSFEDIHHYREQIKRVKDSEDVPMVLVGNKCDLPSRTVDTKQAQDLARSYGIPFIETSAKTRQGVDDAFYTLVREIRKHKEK
Outline: as §1

KRAS-G13D = KRAS-G13D (Homo sapiens, UniProt P01116, G13D); experiment: SOS-catalyzed nucleotide exchange assay (Procedure A, TR-FRET), KRAS-G13D; type: biochemical
KRAS-G13D, sequence (P01116 with tags, fused parts or gaps isoform P01116-2 G13D): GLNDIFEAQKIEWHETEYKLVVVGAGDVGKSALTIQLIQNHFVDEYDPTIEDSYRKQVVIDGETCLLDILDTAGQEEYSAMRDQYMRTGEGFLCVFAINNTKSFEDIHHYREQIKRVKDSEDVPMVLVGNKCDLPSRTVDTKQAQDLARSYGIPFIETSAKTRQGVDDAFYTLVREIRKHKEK
Text: as §2, §3, §4, §5, §6

AsPC-1 cells = experiment: Cellular phospho-ERK assay, AsPC-1 cells (homozygous KRAS-G12D); type: cell-based; settings: Homo sapiens, read-out: AsPC1 pERK IC50
Outline: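 Inhibition of ERK phosphorylation was determined after treating attached cells with compound for 2 h; top concentration 30 μM, serial 1:3 dilution. Each well's p-ERK:total ERK ratio, read by SureFire Ultra, was fitted with a four-parameter model for IC50.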

[2] = nucleotide exchange, read-out: KRAS WT GNE IC50
[3] = nucleotide exchange, Procedure A, read-out: KRAS G12C GNE IC50
[4] = nucleotide exchange, read-out: KRAS G12D GNE IC50
[5] = nucleotide exchange, read-out: KRAS G12V GNE IC50
[6] = nucleotide exchange, Procedure A, read-out: KRAS G13D GNE IC50
[7] = ASPC1, 2 h, 2 hours compound incubation

KRAS-WT, sequence (P01116 with tags, fused parts or gaps isoform P01116-2): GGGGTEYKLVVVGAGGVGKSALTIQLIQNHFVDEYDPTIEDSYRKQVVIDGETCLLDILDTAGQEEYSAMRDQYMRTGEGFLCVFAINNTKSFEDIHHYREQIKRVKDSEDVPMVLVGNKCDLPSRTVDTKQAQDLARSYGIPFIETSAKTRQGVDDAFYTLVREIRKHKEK

Compound | IC50 (KRAS-WT; [2]) | IC50 [1, 3] | IC50 (KRAS-G12D; [4]) | IC50 (KRAS-G12V; [5]) | IC50 (KRAS-G13D; [6]) | IC50 (AsPC-1 cells; ASPC1, 2 h, KRAS-G12D, 2 hours) | IC50 (AsPC-1 cells; [7]) | IC50 (KRAS-WT; KRAS WT GNE IC50, nucleotide exchange) | IC50 [1] | IC50 (KRAS-G12D; KRAS G12D GNE IC50, nucleotide exchange) | IC50 (KRAS-G12V; KRAS G12V GNE IC50, nucleotide exchange) | IC50 (KRAS-G13D) | IC50 (AsPC-1 cells; ASPC1, KRAS-G12D, 2 hours)
C#Cc1cccc2[nH]nc(-c3nccc4c3sc3nc(OC[C@@]56CCCN5C[C@H](F)C6)nc(N5CCOC[C@@](C)(O)C5)c34)c12 [Ex-159, (S)-4-(8-(4-ethynyl-1H-indazol-3-yl)-2-(((2R,7aS)-2-fluorotetrahydro-1H-pyrrolizin-7a(5H)-yl)methoxy)pyrido[4′,3′:4,5]thieno[2,3-d]pyrimidin-4-yl)-6-methyl-1,4-oxazepan-6-ol] | 658 nM | 48.3 nM | 260 nM | 118 nM | 328 nM | – | 1170 nM | – | – | – | – | – | –
Cc1cc2[nH]ncc2c(-c2nccc3c2[se]c2nc(OC[C@@]45CCCN4C[C@H](F)C5)nc(N4CCOC[C@@](C)(O)C4)c23)c1C(F)(F)F [Ex-288, (6S)-4-(2-(((2R,7aS)-2-fluorotetrahydro-1H-pyrrolizin-7a(5H)-yl)methoxy)-8-(6-methyl-5-(trifluoromethyl)-1H-indazol-4-yl)pyrido[4′,3′:4,5]selenopheno[2,3-d]pyrimidin-4-yl)-6-methyl-1,4-oxazepan-6-ol] | – | – | – | – | – | – | – | 69.1 nM | 22 nM | 34.6 nM | 25.9 nM | 50.7 nM | 374 nM
Cc1cc2[nH]ncc2c(-c2ncnc3c2sc2nc(OC[C@@]45CCCN4C[C@H](F)C5)nc(N4CCOC[C@@](C)(O)C4)c23)c1C(F)(F)F [Ex-276, (6S)-4-(7-(((2R,7aS)-2-fluorotetrahydro-1H-pyrrolizin-7a(5H)-yl)methoxy)-4-(6-methyl-5-(trifluoromethyl)-1H-indazol-4-yl)thieno[2,3-d:4,5-d′]dipyrimidin-9-yl)-6-methyl-1,4-oxazepan-6-ol] | 796 nM | 124 nM | 423 nM | 312 nM | 461 nM | 1810 nM | – | – | – | – | – | – | –
Cc1cc2[nH]ncc2c(-c2nccc3c2sc2nc(OC[C@@]45CCCN4C[C@H](F)C5)nc(N4CCOC[C@@](C)(O)C4)c23)c1C1CCCC1 [Ex-147, (6S)-4-(8-(5-cyclo-pentyl-6-methyl-1H-indazol-4-yl)-2-(((2R,7aS)-2-fluoro-tetrahydro-1H-pyr-rolizin-7a(5H)-yl)-methoxy)pyrido [4′,3′:4,5]thieno[2,3-d]pyrimidin-4-yl)-6-methyl-1,4-oxaze-pan-6-ol] | 670 nM | 438 nM | 284 nM | 293 nM | 936 nM | – | 1260 nM | – | – | – | – | – | –

More lines, main results first:

IC50 (KRAS-WT; [2]) | IC50 [1, 3] | IC50 (KRAS-G12D; [4]) | IC50 (KRAS-G12V; [5]) | IC50 (KRAS-G13D; [6]) | IC50 (AsPC-1 cells; ASPC1, 2 h, KRAS-G12D, 2 hours) | IC50 (AsPC-1 cells; [7]) | Compound | IC50 (KRAS-WT; KRAS WT GNE IC50, nucleotide exchange) | IC50 [1] | IC50 (KRAS-G12D; KRAS G12D GNE IC50, nucleotide exchange) | IC50 (KRAS-G12V; KRAS G12V GNE IC50, nucleotide exchange) | IC50 (KRAS-G13D) | IC50 (AsPC-1 cells; ASPC1, KRAS-G12D, 2 hours)
94.6 nM | 184 nM | 39.2 nM | 64.6 nM | 38 nM | 1100 nM | – | Cc1cc2[nH]ncc2c(-c2nncc3c2sc2nc(OC[C@@]45CCCN4C[C@H](F)C5)nc(N4CCOC[C@@](C)(O)C4)c23)c1C(F)(F)F [Ex-277, (6S)-4-(2-(((2R,7aS)-2-fluorotetrahydro-1H-pyrrolizin-7a(5H)-yl)methoxy)-8-(6-methyl-5-(trifluoromethyl)-1H-indazol-4-yl)pyrimido[5′,4′:4,5]thieno[2,3-d]pyridazin-4-yl)-6-methyl-1,4-oxazepan-6-ol] | – | – | – | – | – | –
418 nM | 121 nM | 283 nM | 192 nM | 409 nM | – | 30000 nM | Cc1cc2[nH]ncc2c(-c2nccc3c2sc2nc(OC[C@@]45CCCN4C[C@H](F)C5)nc(NC4CNC(=O)C4)c23)c1C(F)(F)F (stereo partly drawn) [Ex-192, 4-((2-(((2R,7aS)-2-fluoro-tetrahydro-1H-pyrrolizin-7a(5H)-yl)methoxy)-8-(6-methyl-5-(trifluorometh-yl)-1H-indazol-4-yl)pyrido [4′,3′:4,5]thieno[2,3-d]pyrimidin-4-yl)amino)-pyrrolidin-2-one] | – | – | – | – | – | –
262 nM | 30.1 nM | 113 nM | 125 nM | 106 nM | 295 nM | – | CN(C)C[C@@]1(COc2nc(N3CCOC[C@@](C)(O)C3)c3c(n2)oc2c(-c4c(C5CC5)c(Cl)cc5[nH]ncc45)nccc23)CC1(F)F [Ex-294, (6S)-4-(8-(6-chloro-5-cyclopropyl-1H-indazol-4-yl)-2-(((R)-1-((dimethylamino)methyl)-2,2-difluorocyclopropyl)meth-oxy)pyrido[4′,3′:4,5]furo[2,3-d]pyrimidin-4-yl)-6-methyl-1,4-oxazepan-6-ol] | – | – | – | – | – | –
455 nM | 136 nM | 149 nM | 203 nM | 296 nM | 1010 nM | – | C=C(C)c1c(C)cc2[nH]ncc2c1-c1nccc2c1oc1nc(OC[C@]3(CN(C)C)CC3(F)F)nc(N3CCOC[C@@](C)(O)C3)c12 [Ex-293, (6S)-4-(2-(((R)-1-((dimethylamino)methyl)-2,2-difluorocyclopropyl)meth-oxy)-8-(6-methyl-5-(prop-1-en-2-yl)-1H-indazol-4-yl)pyrido[4′,3′:4,5]furo[2,3-d]pyrimidin-4-yl)-6-methyl-1,4-oxazepan-6-ol] | – | – | – | – | – | –
58.2 nM | 77.6 nM | 15.3 nM | 22.1 nM | 29.4 nM | – | 153 nM | Cc1cc2[nH]ncc2c(-c2nccc3c2sc2nc(OC[C@@]45CCCN4C[C@H](F)C5)nc(N4CCOC[C@@](C)(O)C4)c23)c1-c1ccco1 [Ex-146, (6S)-4-(2-(((2R, 7aS)-2-fluorotetra-hydro-1H-pyrrol-izin-7a(5H)-yl)meth-oxy)-8-(5-(furan-2-yl)-6-methyl-1H-indazol-4-yl)pyrido [4′,3′:4,5]thieno[2,3-d]pyrimidin-4-yl)-6-methyl-1,4-oxaze-pan-6-ol] | – | – | – | – | – | –
184 nM | 362 nM | 69.3 nM | 65.3 nM | 172 nM | – | 560 nM | Cc1cc2[nH]ncc2c(-c2nccc3c2sc2nc(OC[C@@]45CCCN4C[C@H](F)C5)nc(N4CCOC[C@@](C)(O)C4)c23)c1C1=CCCC1 [Ex-140, (6S)-4-(8-(5-(cyclo-pent-1-en-1-yl)-6-methyl-1H-indazol-4-yl)-2-(((2R,7aS)-2-fluorotetrahydro-1H-pyrrolizin-7a(5H)-yl)methoxy)pyrido [4′,3′:4,5]thieno[2,3-d]pyrimidin-4-yl)-6-methyl-1,4-oxaze-pan-6-ol] | – | – | – | – | – | –

Source: patent US20260176289A1, “SMALL MOLECULE INHIBITORS OF KRAS PROTEINS” (Merck Sharp & Dohme LLC, priority 2022, published 2026)
